Patent US6908905B2, “N-substituted pyrazole-O-glycoside derivatives and therapeutic agent for diabetes containing the same” (Ajinomoto Co., Inc., priority 2001, dated 2005)

Columns and labels:
rat = conditions: oral administration, increase of sugar excreted in urine, decrease of blood sugar; cited from earlier work
male Wistar rats = assay: Evaluation of effect on urinary excretion of sugar in rats (Example 8); type: in vivo; conditions: rat, oral, 24 hours
Procedure: Five-week-old male Wistar rats (purchased from Charles River Japan, Inc.) were housed in metabolic cages for about one week prior to the experiment. A test compound was suspended in olive oil, so that solutions of the compound with concentrations of […] were prepared to have a dose of 5 ml/kg body weight of the rat. After the rats were not fed for 4 hours, the test compound was orally administered to the rats at a dosage of 10, 30 and 100 mg/kg at 11 a.m. Urine of the rat was collected for a given period of time from the time immediately after the administration to 24 hours after the administration, and the urine volume was measured. Subsequently, the glucose concentration in urine was determined by the glucose oxidase method and the daily amount of glucose excreted in urine per individual was calculated.
As the positive control compound, 3-(benzo[b]furan-5-yl)-2′,6′-dihydroxy-4′-methylpropiophenone 2′-O-(6-O-methoxycarbonyl-β-D-glucopyranoside) was used.

## COC(=O)OC[C@H]1O[C@@H](Oc2cc(C)cc(O)c2C(=O)CCc2ccc3occc3c2)[C@H](O)[C@@H](O)[C@@H]1O [Positive Control Compound, 3-(benzo[b]furan-5-yl)-2′,6′-dihydroxy-4′-methylpropiophenone 2′-O-(6-O-methoxycarbonyl-β-D-glucopyranoside)]
rat
  dose needed to exhibit the efficacy: 100 mg/kg
Male Wistar rats; 10 mg/kg
  The amount of glucose excreted in urine: 2 mg
Male Wistar rats; 30 mg/kg
  The amount of glucose excreted in urine: 78 mg
Male Wistar rats; 100 mg/kg
  The amount of glucose excreted in urine: 274 mg
